Target: MAGL (recombinant wild-type) (Homo sapiens (Human), UniProt Q99685)
Assay: 4-NPA assay: MAGL inhibitory activity by hydrolysis of 4-nitrophenylacetate (absorbance at 405 nm)
Type: biochemical
Conditions: measured in 4-NPA assay (footnote [a]); 1 nM MAGL, 300 μM 4-nitrophenylacetate
Description: This assay is hereinafter abbreviated “4-NPA assay”.
The plate was shaked for 1 min at 2000 rpm (Variomag Teleshake) and then incubated for 15 min at RT. […] The final concentrations in the assay were 1 nM MAGL and 300 μM 4-Nitrophenylacetate. […] A second measurement was then done after incubation for 80 min at RT. From the two measurements, the slope was calculated by subtracting the first from the second measurement.

MAGL (recombinant wild-type), sequence (Q99685 whole entry, species assumed): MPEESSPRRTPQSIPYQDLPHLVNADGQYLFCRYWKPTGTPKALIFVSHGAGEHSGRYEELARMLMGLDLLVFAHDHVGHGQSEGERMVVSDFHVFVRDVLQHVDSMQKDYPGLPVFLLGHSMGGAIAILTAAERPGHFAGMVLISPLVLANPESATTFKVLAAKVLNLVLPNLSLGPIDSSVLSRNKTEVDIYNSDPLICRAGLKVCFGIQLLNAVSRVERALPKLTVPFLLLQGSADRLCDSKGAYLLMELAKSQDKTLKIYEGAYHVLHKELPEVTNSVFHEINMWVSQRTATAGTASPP

| Structure (SMILES) | IC50 |
| --- | --- |
| O=C1CO[C@H]2CCN(C(=O)N3CC(COc4ccc(C(F)(F)F)cc4Cl)C3)C[C@H]2N1 [Example 62] | 0.009 µM |
| O=C1CO[C@H]2CCN(C(=O)N3CCC(F)(COc4ccc(F)cc4Cl)CC3)C[C@H]2N1 [Example 64, (4aR,8aS)-6-(4-((2-Chloro-4-fluorophenoxy)methyl)-4-fluoropiperidine-1-carbonyl)hexahydro-2H-pyrido[4,3-b][1,4]oxazin-3(4H)-one] | 0.04 µM |
| CC(C)(C)c1cnn(CC2CCN(C(=O)N3CC[C@@H]4OCC(=O)N[C@@H]4C3)CC2)c1 [Example 66] | 0.351 µM |
| C[C@H]1O[C@H]2CCN(C(=O)N3CCC(Cc4ccc(C(F)(F)F)cc4)CC3)C[C@H]2NC1=O [Example 67] | 0.12 µM |
| O=C1CO[C@H]2CCN(C(=O)N3CCC(Cc4nc5ccccc5o4)CC3)C[C@H]2N1 [Example 72] | 0.108 µM |
| O=C1CO[C@H]2CCN(C(=O)N3CCC(Oc4ccc(Cl)c(-c5ccc(Cl)cc5)c4)CC3)C[C@H]2N1 [Example 73] | 0.008 µM |
| C[C@H]1CN(C(=O)N2CC[C@@H]3OCC(=O)N[C@@H]3C2)CC[C@H]1COc1ccc(F)cc1Cl [Example 74] | 0.003 µM |
| O=C1CO[C@H]2CCN(C(=O)N3CC(OCc4ccc(C(F)(F)F)cc4Cl)C3)C[C@H]2N1 [Example 75] | 0.002 µM |
| O=C1CO[C@H]2CCN(C(=O)N3CC(OCc4ccc(C(F)(F)F)cc4)C3)C[C@H]2N1 [Example 76] | 0.008 µM |
| O=C1CO[C@H]2CCN(C(=O)N3CC(OCc4ccc(OC(F)(F)F)cc4F)C3)C[C@H]2N1 [Example 77] | 0.016 µM |
| CC1(COc2ccc(F)cc2Cl)CCN(C(=O)N2CC[C@@H]3OCC(=O)N[C@@H]3C2)CC1 [Example 79, (4aR,8aS)-6-(4-((2-chloro-4-fluorophenoxy)methyl)-4-methylpiperidine-1-carbonyl)hexahydro-2H-pyrido[4,3-b][1,4]oxazin-3(4H)-one] | 0.001 µM |
| O=C1CO[C@H]2CCN(C(=O)N3CCC(Cc4ccc(C(F)(F)F)cc4-c4cn[nH]c4)CC3)C[C@H]2N1 [Example 81] | 0.006 µM |
| O=C1CO[C@H]2CCN(C(=O)N3CCC(OCc4ccccc4Cl)C3)C[C@H]2N1 (some centres unmarked) [Example 93] | 0.124 µM |
| O=C1CO[C@H]2CCN(C(=O)N3CCC(OCc4cccc(Cl)c4)C3)C[C@H]2N1 (some centres unmarked) [Example 94] | 0.15 µM |
| O=C1CO[C@H]2CCN(C(=O)N3CCC(Cc4ccc(C(F)(F)F)cc4C4CC4)CC3)C[C@H]2N1 [Example 95] | 0.008 µM |
| O=C1CO[C@H]2CCN(C(=O)N3CCC(COc4ccc(Cl)cc4)C3)C[C@H]2N1 (some centres unmarked) [Example 96] | 0.293 µM |

| Structure (SMILES) | IC50 |
| --- | --- |
| O=C1CO[C@H]2CCN(C(=O)N3CCC(OCc4ccc(Cl)cc4)C3)C[C@H]2N1 (some centres unmarked) [Example 97] | 0.146 µM |
| Cc1cc(C(F)(F)F)ccc1CC1CCN(C(=O)N2CC[C@@H]3OCC(=O)N[C@@H]3C2)CC1 [Example 98] | 0.01 µM |
| O=C1CO[C@H]2CCN(C(=O)N3CCC(Cc4ccc(C(F)(F)F)cc4Cl)CC3)C[C@H]2N1 [Example 99] | 0.012 µM |
| O=C1CO[C@H]2CCN(C(=O)N3CCC(Cc4ccc(C(F)(F)F)cc4)C3)C[C@H]2N1 (some centres unmarked) [Example 100] | 0.082 µM |
| O=C1CO[C@H]2CCN(C(=O)N3CC(OCc4cc(F)cc(C(F)(F)F)c4)C3)C[C@H]2N1 [Example 101] | 0.011 µM |
| O=C1CO[C@H]2CCN(C(=O)N3CC(COCc4c(F)cccc4C(F)(F)F)C3)C[C@H]2N1 [Example 102] | 0.022 µM |
| CC1C(OCc2ccc(C(F)(F)F)cc2)CN1C(=O)N1CC[C@@H]2OCC(=O)N[C@@H]2C1 (stereo partly drawn) [Example 105, (4aR,8aS)-6-[2-Methyl-3-[[4-(trifluoromethyl)phenyl]methoxy]azetidine-1-carbonyl]-4,4a,5,7,8,8a-hexahydropyrido[4,3-b][1,4]oxazin-3-one] | 0.285 µM |
| O=C1CO[C@H]2CCN(C(=O)N3CC(F)(COc4ccc(F)cc4Cl)C3)C[C@H]2N1 [Example 109] | 0.223 µM |
| O=C1CO[C@H]2CCN(C(=O)N3CC(OCc4ccc(C(F)(F)F)cc4F)(C(F)(F)F)C3)C[C@H]2N1 [Example 110] | 2.18 µM |
| CC1(OCc2ccc(C(F)(F)F)cc2F)CN(C(=O)N2CC[C@@H]3OCC(=O)N[C@@H]3C2)C1 [Example 111] | 0.02 µM |
| O=C1CO[C@H]2CCN(C(=O)N3CC(OCc4cc(C(F)(F)F)c(F)cc4F)C3)C[C@H]2N1 [Example 112] | 0.012 µM |
| O=C1CO[C@H]2CCN(C(=O)N3CC(OCc4cc(C(F)(F)F)ccc4F)C3)C[C@H]2N1 [Example 113] | 0.005 µM |
| O=C1CO[C@H]2CCN(C(=O)N3CC(OCc4ccc(C(F)(F)F)c(F)c4)C3)C[C@H]2N1 [Example 114] | 0.005 µM |
| COc1cc(C(F)(F)F)ccc1COC1CN(C(=O)N2CC[C@@H]3OCC(=O)N[C@@H]3C2)C1 [Example 115] | 0.003 µM |
| O=C1CO[C@H]2CCN(C(=O)N3CC(OCc4ccc(Cl)cc4C(F)(F)F)C3)C[C@H]2N1 [Example 116] | 0.004 µM |
| CC1C(OCc2ccc(C(F)(F)F)cc2)CN1C(=O)N1CC[C@@H]2OCC(=O)N[C@@H]2C1 (some centres unmarked) [Example 117] | 0.01 µM |

Source: patent US11802133B2, “Heterocyclic compounds as monoacylglycerol lipase inhibitors” (Hoffmann-La Roche Inc., priority 2018, dated 2023)
